For data set [1], the target named is T1, ATP-binding cassette sub-family C member 2 (Rattus norvegicus, UniProt Q63120). Nature of the data set: TP_TRANSPORTER: inhibition of Naf-GlcA uptake (Naf-GlcA: 0.1 uM) in bile canalicular membrane vesicles of Wistar rat. It is filed as functional, cell membranes, Bile canalicular membrane vesicle.
Data set [2] deals with T1, ATP-binding cassette sub-family C member 2. Nature of the data set: TP_TRANSPORTER: uptake in bile canalicular membrane vesicles from Wistar/TR- rat. It is filed as functional, cell membranes, Bile canalicular membrane vesicle.

As a reminder, the IC50 is the midpoint of a concentration-inhibition curve.

Structures are written as SMILES.

T1 sequence (Q63120 whole entry): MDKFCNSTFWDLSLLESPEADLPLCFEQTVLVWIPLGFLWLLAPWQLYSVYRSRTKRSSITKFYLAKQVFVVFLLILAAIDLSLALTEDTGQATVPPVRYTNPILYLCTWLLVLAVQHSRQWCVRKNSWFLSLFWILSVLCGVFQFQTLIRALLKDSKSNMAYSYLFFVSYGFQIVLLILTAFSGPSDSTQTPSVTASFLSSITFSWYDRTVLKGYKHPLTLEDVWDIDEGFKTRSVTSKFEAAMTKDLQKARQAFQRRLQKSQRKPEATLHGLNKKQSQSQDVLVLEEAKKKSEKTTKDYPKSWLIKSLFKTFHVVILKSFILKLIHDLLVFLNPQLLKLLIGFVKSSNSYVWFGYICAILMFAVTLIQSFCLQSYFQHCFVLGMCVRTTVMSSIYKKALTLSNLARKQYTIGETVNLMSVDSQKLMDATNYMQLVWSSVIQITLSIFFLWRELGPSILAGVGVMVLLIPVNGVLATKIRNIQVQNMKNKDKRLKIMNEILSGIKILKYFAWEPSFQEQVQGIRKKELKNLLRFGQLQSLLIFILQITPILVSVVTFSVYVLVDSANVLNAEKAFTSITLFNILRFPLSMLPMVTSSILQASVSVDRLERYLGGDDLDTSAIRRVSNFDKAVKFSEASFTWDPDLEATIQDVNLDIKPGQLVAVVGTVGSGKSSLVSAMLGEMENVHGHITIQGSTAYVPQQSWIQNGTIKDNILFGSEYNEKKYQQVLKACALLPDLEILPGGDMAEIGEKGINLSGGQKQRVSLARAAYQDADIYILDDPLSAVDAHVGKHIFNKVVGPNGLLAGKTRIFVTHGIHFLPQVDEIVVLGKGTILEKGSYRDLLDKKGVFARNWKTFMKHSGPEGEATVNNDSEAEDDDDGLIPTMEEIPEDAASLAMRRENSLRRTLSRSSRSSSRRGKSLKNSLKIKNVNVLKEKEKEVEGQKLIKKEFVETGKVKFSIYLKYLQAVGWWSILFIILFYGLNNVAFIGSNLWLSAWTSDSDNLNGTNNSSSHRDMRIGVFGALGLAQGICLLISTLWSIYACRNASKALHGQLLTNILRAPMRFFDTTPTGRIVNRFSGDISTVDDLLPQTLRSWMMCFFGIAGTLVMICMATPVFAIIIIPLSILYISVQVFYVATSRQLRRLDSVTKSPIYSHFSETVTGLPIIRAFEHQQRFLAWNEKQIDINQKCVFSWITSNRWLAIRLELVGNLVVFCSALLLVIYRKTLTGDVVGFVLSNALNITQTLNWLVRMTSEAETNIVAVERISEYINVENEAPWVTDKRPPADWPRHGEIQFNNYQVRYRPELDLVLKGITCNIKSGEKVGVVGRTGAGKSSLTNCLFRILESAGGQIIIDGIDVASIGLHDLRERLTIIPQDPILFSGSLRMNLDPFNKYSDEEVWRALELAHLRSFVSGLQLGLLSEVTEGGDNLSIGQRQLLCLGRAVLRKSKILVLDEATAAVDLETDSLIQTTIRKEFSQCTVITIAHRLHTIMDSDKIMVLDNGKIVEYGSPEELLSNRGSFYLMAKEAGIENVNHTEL

The compound `N[C@@H](CCC(=O)N[C@H](CSc1ccc([N+](=O)[O-])cc1[N+](=O)[O-])C(=O)NCC(=O)O)C(=O)O` came in with an IC50 in data set [1] of 12 µM.
On the same count and under the same terms, the value for `CCCCC/C=C\C\C=C/C=C/C=C/[C@@H](SC[C@@H](NC(=O)CC[C@H](N)C(=O)O)C(=O)NCC(=O)O)[C@@H](O)CCCC(=O)O` [LEUKOTRIEN C4] was 0.2 µM.
In the case of `CC(C)(Oc1ccc(C2CCCc3ccccc32)cc1)C(=O)O[C@@H]1O[C@H](O)[C@@H](O)[C@H](O)[C@H]1O` (stereo partly drawn) [NAFENOPIN GLUCURONIDE], the Activity entry in data set [2] was “substrate [+]”.

(Values after ChEMBL document CHEMBL2074436, “Hepatobiliary elimination of the peroxisome proliferator nafenopin by conjugation and subsequent ATP-dependent transport across the canalicular membrane” (Biochem Pharmacol, 1994).)
